What was measured:
Test in all cases: Cell proliferation assay (6 days, CellTiter-Glo)
Format in all cases: cell-based
BC-1 = details: Homo sapiens, BC1, 144 h, AIDS-BCBL, EZH2 WT, read-out: AVERAGE GROWTH IC50
Excerpt: (§1) Thus, Example 22 and Table 6 better reflect the inhibition of HZH2 inhibitors on cell lines, e.g. the lymphoma cell lines. DLBCL cell lines were the most sensitive to EZH2 inhibition (FIG. 11a). […] Evaluation of GSK126 in additional lymphoma cell lines and extensive genomic and epigenomic characterization will be required to fully elucidate the determinants of sensitivity among lymphoma subtypes.
(§2) Biochemical assays utilized the 5-member PRC2 complex (human Flag-EZH2, EED, SUZ12, AEBP2, RbAp48) containing either WT or mutant EZH2, [^3H-]SAM and the indicated peptide substrate; reactions were incubated for 30 minutes. Global histone modification levels were determined by ELISA or western blot methods using antibodies specific for total histone H3, H3K27me1, H3K27me2, or H3K27me3. Cell proliferation and Caspase-3/7 activity were assessed using CellTiter-Glo and Caspase-Glo 3/7 (Promega), respectively. Gene expression profiling was conducted using Affymetrix Human Genome U133 Plus 2.0 microarrays. Differentially-expressed probe sets were determined by fitting the data to a linear model using the limma statistical package (http://www.bioconductor.org) and carrying out pair-wise contrasts of treated versus control. Significant probe sets were filtered for detection (log2 signal threshold of 8), an average fold-change >2 or <−2, or >1.5 or <−1.5, where indicated, with p-values adjusted for multiple testing correction by FDR (Benjamini Hochberg)<0.1. H3K27me3 ChIP reads were aligned using Bowtie (56). H3K27me3 enrichment peaks were identified using SICER (57) with optimized parameters. A custom PERL script was utilized to quantify the average basal H3K27me3 ChIP-seq tag density across gene sets. All in vivo studies were conducted after review by the Institutional Animal Care and Use Committee at GSK and in accordance with the GSK Policy on the Care, Welfare and Treatment of Laboratory Animals. GSK126 and vehicle were administered to mice intraperitoneally. Two-tailed t-tests were conducted assuming two samples of equal variance.
(§3) The optimal cell seeding was determined empirically for all cell lines by examining the growth of a wide range of seeding densities in a 384-well format to identify conditions that permitted proliferation for 6 days. […] Plates were incubated for 6 days at 37° C. in 5% CO2. Cells were then lysed with CellTiter-Glo (Promega) and chemiluminescent signal was detected with a TECAN Safire2 microplate reader. In addition, an untreated plate of cells was harvested at the time of compound addition (T0) to quantify the starting number of cells. CTG values obtained after the 6 day treatment were expressed as a percent of the T0 value and plotted against compound concentration.

CA46 = details: Homo sapiens, 144 h, BURKITT, EZH2 D185H (HET), read-out: AVERAGE GROWTH IC50
Excerpt: as §1, §2, §3

CI-1 = details: Homo sapiens, 144 h, B-NHL, EZH2 D185H (HET), read-out: AVERAGE GROWTH IC50
Excerpt: as §1, §2, §3

DG-75 = details: Homo sapiens, 144 h, BURKITT, EZH2 WT, read-out: AVERAGE GROWTH IC50
Excerpt: as §1, §2, §3

HD-MY-Z = details: Homo sapiens, 144 h, HODGKIN'S, EZH2 WT, read-out: AVERAGE GROWTH IC50
Excerpt: as §1, §2, §3

L-428 = details: Homo sapiens, 144 h, HODGKIN'S, EZH2 Y641S (HET), read-out: AVERAGE GROWTH IC50
Excerpt: as §1, §2, §3

MC116 = details: Homo sapiens, 144 h, B-NHL, EZH2 WT, read-out: AVERAGE GROWTH IC50
Excerpt: as §1, §2, §3

NU-DUL-1 = details: Homo sapiens, 144 h, B-NHL, EZH2 WT, read-out: AVERAGE GROWTH IC50
Excerpt: as §1, §2, §3

OCI-LY-19 = details: Homo sapiens, OCI-LY19, 144 h, DLBCL, EZH2 WT, read-out: AVERAGE GROWTH IC50
Excerpt: as §1, §2, §3

P3HR-1 = details: Homo sapiens, 144 h, BURKITT, EZH2 WT, read-out: AVERAGE GROWTH IC50
Excerpt: as §1, §2, §3

RI-1 = details: Homo sapiens, 144 h, MCL, EZH2 WT, read-out: AVERAGE GROWTH IC50
Excerpt: as §1, §2, §3

RL = details: Homo sapiens, 144 h, DLBCL, EZH2 Y641N, D185H (HET), read-out: AVERAGE GROWTH IC50
Excerpt: as §1, §2, §3

SU-DHL-4 = details: Homo sapiens, 144 h, DLBCL, EZH2 Y641S (HET), Y661N (HET), read-out: AVERAGE GROWTH IC50
Excerpt: as §1, §2, §3

SU-DHL-8 = details: Homo sapiens, 144 h, DLBCL, EZH2 WT, read-out: AVERAGE GROWTH IC50
Excerpt: as §1, §2, §3

Toledo = details: Homo sapiens, 144 h, DLBCL, EZH2 WT, read-out: AVERAGE GROWTH IC50
Excerpt: as §1, §2, §3

U-2932 = details: Homo sapiens, U2932, 144 h, DLBCL, EZH2 WT, read-out: AVERAGE GROWTH IC50
Excerpt: as §1, §2, §3

U-2940 = details: Homo sapiens, 144 h, DLBCL, EZH2 WT, read-out: AVERAGE GROWTH IC50
Excerpt: as §1, §2, §3

U-698-M = details: Homo sapiens, 144 h, B-NHL, EZH2 WT, read-out: AVERAGE GROWTH IC50
Excerpt: as §1, §2, §3

WILL-2 = details: Homo sapiens, 144 h, DLBCL, EZH2 WT, read-out: AVERAGE GROWTH IC50
Excerpt: as §1, §2, §3

WSU-DLCL2 = details: Homo sapiens, WSUDLCL2, 144 h, DLBCL, EZH2 Y641F (HET), read-out: AVERAGE GROWTH IC50
Excerpt: as §1, §2, §3

WSU-FSCCL = details: Homo sapiens, 144 h, FL, EZH2 D185H (HET), read-out: AVERAGE GROWTH IC50
Excerpt: as §1, §2, §3

CC[C@H](C)n1cc(C)c2c(C(=O)NCc3c(C)cc(C)[nH]c3=O)cc(-c3ccc(N4CCNCC4)nc3)cc21 [GSK126]
IC50 (BC-1): 8.29 µM
IC50 (CA46): 6.58 µM
IC50 (CI-1): 4.28 µM
IC50 (DG-75): 3.25 µM
IC50 (HD-MY-Z): 10.7 µM
IC50 (L-428): 4.7 µM
IC50 (MC116): 10.2 µM
IC50 (NU-DUL-1): 17.1 µM
IC50 (OCI-LY-19): 1.02 µM
IC50 (P3HR-1): 3.21 µM
IC50 (RI-1): 7.66 µM
IC50 (RL): 4.73 µM
IC50 (SU-DHL-4): 4.83 µM
IC50 (SU-DHL-8): 3.19 µM
IC50 (Toledo): 13.8 µM
IC50 (U-2932): 2.94 µM
IC50 (U-2940): 4.56 µM
IC50 (U-698-M): 5.6 µM
IC50 (WILL-2): 27.5 µM
IC50 (WSU-DLCL2): 0.134 µM
IC50 (WSU-FSCCL): 12 µM

From US20170348306A1, “METHODS OF TREATING CANCER” (GLAXOSMITHKLINE LLC, priority 2011, published 2017)
